The source made the active and inactive calls. No cut-off for these calls is given here.
What was measured:
[1] = target: T1, Transcription factor p65 (Homo sapiens, UniProt Q04206); assay: Inhibition of NF-kappa-B p65 in human THP1 cells assessed as suppression of LPS-induced TNFalpha release preincubated for 3 hrs followed by LPS stimulation by ELISA; type: cell-based, THP-1
[2] = target: T1, Transcription factor p65; assay: Inhibition of NF-kappa-B p65 in human THP1 cells assessed reduction in phosphorylated p65 levels at 50 uM preincubated for 3 hrs followed by LPS stimulation after 18 hrs by Western blot analysis; type: cell-based; settings: THP-1
[3] = target: T1, Transcription factor p65; assay: Inhibition of LPS-induced NF-kappa-B p65 phosphorylation in human THP1 cells at 50 uM preincubated for 3 hrs followed by LPS stimulation for 18 hrs; settings: THP-1

T1 sequence (Q04206 whole entry): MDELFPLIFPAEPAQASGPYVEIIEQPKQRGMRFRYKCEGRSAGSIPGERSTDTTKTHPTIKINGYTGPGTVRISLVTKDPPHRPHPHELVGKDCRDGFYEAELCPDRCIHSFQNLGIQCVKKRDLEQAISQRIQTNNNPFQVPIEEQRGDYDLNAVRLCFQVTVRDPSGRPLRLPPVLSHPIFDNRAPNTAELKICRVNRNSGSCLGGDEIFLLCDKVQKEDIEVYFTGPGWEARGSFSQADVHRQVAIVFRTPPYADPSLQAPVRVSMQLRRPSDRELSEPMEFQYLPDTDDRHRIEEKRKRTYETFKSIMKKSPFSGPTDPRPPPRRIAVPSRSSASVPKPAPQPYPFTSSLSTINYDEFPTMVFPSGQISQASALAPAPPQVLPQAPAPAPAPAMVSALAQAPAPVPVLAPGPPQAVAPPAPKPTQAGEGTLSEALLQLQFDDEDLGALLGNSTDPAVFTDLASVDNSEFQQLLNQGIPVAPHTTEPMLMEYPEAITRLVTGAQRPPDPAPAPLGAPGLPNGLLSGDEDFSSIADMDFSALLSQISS

| Compound | IC50 [1] [µM] | inhibition [2] | inhibition [3] |
| --- | --- | --- | --- |
| O=C1C[C@@H](c2ccc(O)c(O[C@@H]3O[C@H](CO)[C@@H](O)[C@H](O)[C@H]3O)c2)Oc2c1c(O)c([C@H](CCc1ccc(O[C@@H]3O[C@H](CO)[C@@H](O)[C@H](O)[C@H]3O)cc1)c1ccc(O[C@@H]3O[C@H](CO)[C@@H](O)[C@H](O)[C@H]3O)cc1O[C@@H]1O[C@H](CO)[C@@H](O)[C@H](O)[C@H]1O)c(O)c2[C@@H](CCc1ccc(O[C@@H]2O[C@H](CO)[C@@H](O)[C@H](O)[C@H]2O)cc1)c1ccc(O[C@@H]2O[C@H](CO)[C@@H](O)[C@H](O)[C@H]2O)cc1O[C@@H]1O[C@H](CO)[C@@H](O)[C@H](O)[C@H]1O | 19.3 | Active | Active |
| O=C1C[C@@H](c2ccc(O)c(O[C@@H]3O[C@H](CO)[C@@H](O)[C@H](O)[C@H]3O)c2)Oc2c1c(O)c([C@H](CCc1ccc(O)cc1)c1ccc(O)cc1O[C@@H]1O[C@H](CO)[C@@H](O)[C@H](O)[C@H]1O)c(O)c2[C@@H](CCc1ccc(O)cc1)c1ccc(O)cc1O[C@@H]1O[C@H](CO)[C@@H](O)[C@H](O)[C@H]1O | – | Active | Active |
